The source of these data is ChEMBL document CHEMBL6153172, “MALT1 Inhibitors and Degraders: Strategies for NF-κB-Driven Malignancies” (J Med Chem, 2025).

Structures are written as SMILES. Where a SMILES comes first, the peptide text is derived from it. The star is where a group is joined. Cbz = O=C(OCc1ccccc1)*; CH2F = FC*

Experiment [1] has as its system OCI-Ly3. Description: Growth inhibition of human OCI-Ly3 cells.
The target of experiment [2] is T1, Mucosa-associated lymphoid tissue lymphoma translocation protein 1 (Homo sapiens, UniProt Q9UDY8).
T1 sequence (Q9UDY8 whole entry): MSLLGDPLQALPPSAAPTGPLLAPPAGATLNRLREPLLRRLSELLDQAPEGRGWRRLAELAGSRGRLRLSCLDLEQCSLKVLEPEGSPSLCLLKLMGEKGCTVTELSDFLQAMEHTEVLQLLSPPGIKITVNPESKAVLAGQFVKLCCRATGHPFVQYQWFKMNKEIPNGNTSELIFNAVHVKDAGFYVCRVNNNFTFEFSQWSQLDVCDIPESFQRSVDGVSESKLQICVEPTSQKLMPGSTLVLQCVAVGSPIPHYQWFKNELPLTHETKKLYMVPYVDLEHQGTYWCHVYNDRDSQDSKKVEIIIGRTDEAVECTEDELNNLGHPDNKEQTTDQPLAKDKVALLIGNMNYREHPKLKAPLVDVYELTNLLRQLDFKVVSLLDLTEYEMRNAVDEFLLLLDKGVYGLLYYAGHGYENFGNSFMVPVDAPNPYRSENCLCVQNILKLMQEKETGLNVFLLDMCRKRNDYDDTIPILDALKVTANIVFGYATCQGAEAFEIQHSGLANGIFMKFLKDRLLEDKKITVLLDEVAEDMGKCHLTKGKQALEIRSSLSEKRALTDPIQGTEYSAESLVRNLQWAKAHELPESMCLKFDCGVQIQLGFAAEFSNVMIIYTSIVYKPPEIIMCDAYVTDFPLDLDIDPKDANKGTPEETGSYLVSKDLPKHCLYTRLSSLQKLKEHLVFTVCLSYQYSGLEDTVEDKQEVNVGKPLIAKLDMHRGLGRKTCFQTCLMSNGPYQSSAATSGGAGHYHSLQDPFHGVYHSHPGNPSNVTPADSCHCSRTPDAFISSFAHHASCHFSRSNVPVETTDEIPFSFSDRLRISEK
Description: Inhibition of MALT1 (unknown origin)

The target in experiment [3] is T1, Mucosa-associated lymphoid tissue lymphoma translocation protein 1. Description: Inhibition MALT1 (unknown origin) using Ac-LRSR-AMC as substrate by fluorescence based analysis.
The target is the same in experiment [4]. Description: biochemical.
Description: Inhibition of C-terminal human full length wild type MALT1 (329 to 824 residues) extracted from baculovirus infected Sf21 cells using Ac-Leu-Arg-Ser-Arg-Rh110-dPro incubated for 60 mins by fluorescence based analysis
For experiment [5] the target is unchanged. Description: biochemical. This is another data set of the same source.
Description: Inhibition of human full length His-tagged MALT1 (1 to 824 residues) infected in baculovirus infected Insect cells using Ac-LRSR-AMC as substrate incubated for 1 hr by HTRF assay
For experiment [6] the target is unchanged. Description: Inhibition of N-terminal human recombinant MALT1 expressed in Jurkat cells assessed as suppression of IL-2 secretion.
The target is the same in experiment [7]. Description: biochemical. This is another data set of the same source.
Description: Inhibition of N-terminal recombinant human MALT1 (329 to 824 residues) extracted from baculovirus infected Sf21 cells using c-LRSR~Rhodamine110-DP as substrate by fluorescence based assay
For experiment [8] the target is unchanged. The source holds these as a separate data set.
Description: Binding affinity to full length C-terminal His-tagged wild-type MALT1 catalytic domain (329 to 566 residues) (unknown origin) extracted from Escherichia coli BL21 (DE3) assessed as inhibition constant
The subject of experiment [9] is OCI-Ly3. Description: Antiproliferative activity against human OCI-Ly3 cells. It counts as functional, cell-based.
Experiment [10] has as its target T1, Mucosa-associated lymphoid tissue lymphoma translocation protein 1. Briefly: Inhibition of GST-tagged human recombinant MALT1 extracted from Escherichia coli using Ac-LRSR-AMC as substrate by fluorescence based analysis.

On to `CC(C)[C@H](NC(=O)OCc1ccccc1)C(=O)N[C@@H](CCCNC(=N)N)C(=O)N1CCC[C@H]1C(=O)N[C@@H](CCCNC(=N)N)C(=O)CF`, for which, in experiment [1], growth was halved (GI50) at 2500 nM. Take `CC(C)[C@H](NC(=O)c1ccc(Br)cc1)C(=O)N1CCC[C@H]1C(=O)N[C@@H](CCCNC(=N)N)C(=O)CF`: in experiment [1], growth was halved (GI50) at 87 nM. As for `COC(C)c1c(NC(=O)Nc2cnc(-n3nccn3)c(C(F)(F)F)c2)cnc2sc(C)nc12` (stereo not drawn), in [2], the IC50 (usually the midpoint of a concentration-inhibition curve) is below 50 nM. As for `CO[C@@H](c1c(NC(=O)Nc2cnc(-n3nccn3)c(C(F)(F)F)c2)cnc(C)c1C#N)C1CC1`, the IC50 in experiment [2] was found to be 20 nM. Compound `CO[C@@H](C)c1c(NC(=O)Nc2cncc(C(F)(F)F)c2)cnc2cc(Cl)nn12` had a half-inhibitory concentration (IC50) in [3] of 4 nM. For `CO[C@H](C)c1c(NC(=O)Nc2cnc(C(=O)N3CCCC3)c(Cl)c2)cnc2cc(Cl)nn12`, the half-inhibitory concentration (IC50) in [4] is 14 nM. `CO[C@@H](C)c1c(NC(=O)Nc2cnc3c(c2)COc2ccnn2-3)cnc2cc(Cl)nn12` yielded an IC50 in [5] of 34 nM. On the same count and under the same terms, the result for `C[C@]1(C(F)(F)F)CN(C(=O)Nc2cnc(-n3nccn3)c(Cl)c2)c2cnc3cc(Cl)nn3c21` reads below 10 nM; that for `CC1(C(F)(F)F)CN(C(=O)Nc2ccc3nonc3c2)c2cnc3cc(Cl)nn3c21` (stereo not drawn), 34 nM.

Turning to `O=C(Nc1cncc(C(F)(F)F)c1)Nc1cnn2cc(Cl)nc2c1C1CC1`, the IC50 in experiment [2] was below 100 nM.

As for `CCc1ccc2cnn(C)c2c1NS(=O)(=O)c1ccc(N2C[C@](O)(C(F)(F)F)CC2=O)nc1`, the IC50 amounted to 53 nM in experiment [6] and 16 nM in experiment [7]. Regarding `O=C1NC2C=CC(n3ncc(C(=O)Nc4cnc(-n5nccn5)c(Cl)c4)c3C(F)(F)F)=C3C=CC=C1C32` (stereo not drawn), the IC50 in experiment [5] came to 15 nM.

For `CC(C)C[C@H](NC(=O)OCc1ccccc1)C(=O)N[C@H](C(=O)N1CCC[C@H]1C(=O)N[C@@H](CCCNC(=N)N)C(=O)CF)C(C)C` (Cbz-LVPR-CH2F), it took 768 nM to inhibit growth in experiment [1] by half (GI50). Consider `CC(C)[C@H](NC(=O)OCc1ccccc1)C(=O)N1CCC[C@H]1C(=O)N[C@@H](CCCNC(=N)N)C(=O)CF` (Cbz-Val-Pro-Arg-CH2F), for which the 50% growth inhibitory concentration (GI50) (commonly the concentration that inhibits growth by half) in experiment [1] turned out to be 5620 nM. In addition, the affinity in experiment [8] corresponds to a Ki of 30 nM. Compound `CC1(C)CCC2=C(O1)c1ccccc1C(=O)C2=O` [LAPACHONE] registered a 50% inhibitory concentration (IC50) in experiment [9] of 4000 nM.

`CN(C)CCCN1c2ccccc2Sc2ccccc21` [PROMAZINE]: the concentration for half-maximal inhibition (IC50) in experiment [10] worked out at 3790 nM.
